Experimental data taken from patent US8633204B2 (Pfizer Inc., priority 2006, dated 2014).

Assays:
[1] = system: PI3-K in BT20 cells (phosphorylation of AKT at serine 473); assay: PI3-Kα Cellular Assay (AKT Ser473 phosphorylation ELISA in BT20 cells); assay type: cell-based, human; conditions: 1 hour incubation
Procedure, shortened: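 Cells seeded overnight in 0.5% FBS, then exposed 1 h at 37 °C to an 11-concentration 1:3 dilution series, in duplicate.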

[2] = target: PI3-Kα (Mus musculus (Mouse), UniProt P42337); assay: PI3-Kα Biochemical Assay (fluorescence polarization kinase assay)
Procedure, shortened: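 Co-expressed mouse p110/p85 PI3-Kα (4 nM stock) acting on PI(4,5)P2 (60 μM stock) with ATP/MgCl2 in HEPES pH 7.4 buffer, 35 min at room temperature, then EDTA stop. PI(3,4,5)P3 product detected by displacement of TAMRA-PIP3 from Grip1 PH domain (FP, 535/580 nm). IC50 from sigmoidal fit of % inhibition.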

[3] = Homo sapiens, BT-20, pAKT Ser473 ELISA

PI3-Kα, sequence (P42337 whole entry, the tested form may be a part): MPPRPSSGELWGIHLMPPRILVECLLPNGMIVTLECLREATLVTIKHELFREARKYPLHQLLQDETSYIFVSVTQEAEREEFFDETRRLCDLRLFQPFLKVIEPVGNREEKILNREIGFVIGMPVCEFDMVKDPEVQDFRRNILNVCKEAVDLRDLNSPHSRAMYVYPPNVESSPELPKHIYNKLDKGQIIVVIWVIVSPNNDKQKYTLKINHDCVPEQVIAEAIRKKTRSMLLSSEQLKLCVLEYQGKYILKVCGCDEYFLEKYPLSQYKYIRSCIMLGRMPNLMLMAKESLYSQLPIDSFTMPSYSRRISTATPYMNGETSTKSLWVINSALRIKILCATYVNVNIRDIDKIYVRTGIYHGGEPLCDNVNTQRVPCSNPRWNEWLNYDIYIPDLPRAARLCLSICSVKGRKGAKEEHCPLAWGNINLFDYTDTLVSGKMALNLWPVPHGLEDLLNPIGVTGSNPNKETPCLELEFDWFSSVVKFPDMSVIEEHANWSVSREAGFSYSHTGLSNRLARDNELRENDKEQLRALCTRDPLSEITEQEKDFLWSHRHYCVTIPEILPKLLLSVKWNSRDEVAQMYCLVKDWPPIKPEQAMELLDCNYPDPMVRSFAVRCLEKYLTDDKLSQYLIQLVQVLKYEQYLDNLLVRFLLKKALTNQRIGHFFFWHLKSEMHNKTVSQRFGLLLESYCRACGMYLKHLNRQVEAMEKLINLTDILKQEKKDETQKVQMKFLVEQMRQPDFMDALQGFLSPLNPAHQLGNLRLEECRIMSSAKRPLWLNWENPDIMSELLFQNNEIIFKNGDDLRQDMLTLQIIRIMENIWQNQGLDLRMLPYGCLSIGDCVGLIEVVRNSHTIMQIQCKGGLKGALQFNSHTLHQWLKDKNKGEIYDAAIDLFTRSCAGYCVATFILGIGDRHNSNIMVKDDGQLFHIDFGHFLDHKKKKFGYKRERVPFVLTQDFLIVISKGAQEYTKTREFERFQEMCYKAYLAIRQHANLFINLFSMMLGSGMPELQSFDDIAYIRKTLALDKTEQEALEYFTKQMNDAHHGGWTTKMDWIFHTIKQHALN
PI3-Kα, sequence (P26450 whole entry partner, the tested form may be a part): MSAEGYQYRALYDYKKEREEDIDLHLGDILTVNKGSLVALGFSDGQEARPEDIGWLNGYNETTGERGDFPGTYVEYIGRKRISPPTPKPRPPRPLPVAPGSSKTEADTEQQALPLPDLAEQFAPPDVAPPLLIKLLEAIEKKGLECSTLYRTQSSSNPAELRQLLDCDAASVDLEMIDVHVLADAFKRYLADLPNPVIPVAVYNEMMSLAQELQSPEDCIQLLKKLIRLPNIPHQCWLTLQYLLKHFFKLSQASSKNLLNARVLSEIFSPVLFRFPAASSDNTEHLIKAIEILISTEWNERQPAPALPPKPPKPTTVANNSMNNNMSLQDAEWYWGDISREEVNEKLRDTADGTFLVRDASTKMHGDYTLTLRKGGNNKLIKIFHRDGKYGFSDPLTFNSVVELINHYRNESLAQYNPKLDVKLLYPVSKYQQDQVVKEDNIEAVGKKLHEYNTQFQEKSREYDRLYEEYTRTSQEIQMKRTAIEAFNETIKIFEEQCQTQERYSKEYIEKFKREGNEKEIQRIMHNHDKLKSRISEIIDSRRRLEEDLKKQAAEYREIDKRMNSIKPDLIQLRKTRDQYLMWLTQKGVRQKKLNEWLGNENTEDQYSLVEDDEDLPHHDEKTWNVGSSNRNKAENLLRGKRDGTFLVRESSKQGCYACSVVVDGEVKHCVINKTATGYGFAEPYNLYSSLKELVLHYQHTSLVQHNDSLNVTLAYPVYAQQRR

SMILES	IC50 [1, 3] [nM]	IC50 [2] [nM]	IC50 ([1]; pAKT Ser473 ELISA) [nM]
CNc1nc(C)c2cc(-c3cnn(CC(F)F)c3)c(=O)n(C3CCCC3)c2n1 [Compound 236, 8-Cyclopentyl-6-[1-(2,2-difluoro-ethyl)-1H pyrazol-4-yl]-4-methyl 2-methylamino-8H-pyrido[2,3 d]pyrimidin-7-one]	10000	46	–
Cc1nc(N)nc2c1cc(-c1cnn(CC(F)F)c1)c(=O)n2C1CCCC1 [Compound 237, 2-Amino-8-cyclopentyl-6-[1-(2,2-drfluoro-ethyl)-1H-pyrazol-4-yl]-4-methyl 8H-pyrido[2,3-d]pyrimidin-7-one]	397	12	–
COc1ccc(-c2cc3c(C)nc(N)nc3n(CC3CCOCC3)c2=O)cn1 [Compound 242, 2-Amino-6-(6-methoxy-pyridin-3-yl)-4-methyl-8-(tetrahydro-pyran-4-ylmethyl)-8H-pyrido[2,3-d]pyrimidin-7-one]	88.4	15	–
COc1ccc(-c2cc3c(C)nc(N)nc3n(CC(C)(C)F)c2=O)cn1 [Compound 244, 2-Amino-8-(2-fluoro-2-methyl-propyl)-6-(6-methoxy-pyridin-3-yl)-4-methyl-8H-pyrido[2,3-d]pyrimidin-7-one]	437	30	–
COc1ccc(-c2cc3c(C)nc(N)nc3n(C3CCNC3)c2=O)cn1 (stereo not shown) [Compound 247, 2-Amino-6-(6-methoxy-pyridin-3-yl)-4-methyl-8-pyrrolidin-3-yl-8H-pyrido[2,3-d]pyrimidin-7-one]	671	200	–
COc1ccc(-c2cc3c(C)nc(N)nc3n(C3CCN(C(C)=O)C3)c2=O)cn1 (stereo not shown) [Compound 248, 8-(1-Acetyl-pyrrolidin-3-yl)-2-amin-6-(6-methoxy-pyridin-3-yl)-4-methyl-8H-pyrido[2,3-d]pyrimidin-7-one]	127	7	–
Cc1nc(N)nc2c1cc(C(=O)Nc1ccn[nH]1)c(=O)n2[C@H]1CC[C@H](O)CC1 [Compound 251, 2-Amino-8-(trans-4-hydroxycyclohexyl)-4-methyl-7-oxo-N-1H-pyrazol-5-yl-7,8-dihydropyrido[2,3-d]pyrimidine-6-carboxamide]	28.3	0.59	–
Cc1nc(N)nc2c1cc(-c1ccc(N3CCCC3)nc1)c(=O)n2[C@H]1CC[C@H](O)CC1 [Compound 253, 2-amino-8-(trans-4-hydroxycyclohexyl)-4-methyl-6-(6-pyrrolidin-1-ylpyridin-3-yl)pyrido[23-d]pyrimidin-7(8H)-one]	4.92	19	–
COc1ncc(-c2cc3c(C)nc(N)nc3n(C3CCCC3)c2=O)cn1 [Compound 255, 2-amino-8-cyclopentyl-6-(2-methoxypyrimidin-5-yl)-4-methylpyrido[23-d]pyrimidin-7(8H)-one]	9.57	2	–
Cc1nc(N)nc2c1cc(-c1ccc(N3CCCC3)nc1)c(=O)n2C1CCCC1 [Compound 258, 2-amino-8-cyclopentyl-4-methyl-6-(6-pyrrolidin-1-ylpyridin-3-yl)pyrido[23-d]pyrimidin-7(8H)-one]	26.5	88	–
COc1ncc(-c2cc3c(C)nc(N)nc3n(C3CCOCC3)c2=O)cn1 [Compound 259, 2-amino-6-(2-methoxypyrimidin-5-yl)-4-methyl-8-(tetrahydro-2H-pyran-4-yl)pyrido[23-d]pyrimidin-7(8H)-one]	26.7	45	–
CCN(CC)C(=O)OCn1cc(-c2cc3c(C)nc(N)nc3n(C(C)C)c2=O)nn1 [Compound 263, (4-(2-Amino-8-isopropyl-4-methyl-7-oxo-7,8-dihydropyrido[2,3-d]pyrimidin-6-yl)-1H-1,2,3-triazol-1-yl)methyl diethylcarbamate]	10000	3300	–
Cc1nc(N)nc2c1cc(-c1c[nH]nn1)c(=O)n2C(C)C [Compound 264, 2-Amino-8-isopropyl-4-methyl-6-(1H-1,2,3-triazol-4-yl)pyrido[2,3-d]pyrimidin-7(8H)-one]	556	62	–
Cc1nc(N)nc2c1cc(-c1cnc(O)nc1)c(=O)n2C1CCOCC1 [Compound 267, 2-Amino-6-(2-hydroxypyrimidin-5-yl)-4-methyl-8-(tetrahydro-2H-pyran-4-yl)pyrido[2,3-d]pyrimidin-7(8H)-one]	10000	810	–
Cc1nc(N)nc2c1cc(C#N)c(=O)n2C1CCC1 [Compound 269, 2-Amino-8-cyclobutyl-4-methyl-7-oxo-7,8-dihydropyrido[2,3-d]pyrimidine-6-carbonitrile]	2090	95	–
Cc1nc(N)nc2c1cc(-c1cnc3ccccc3c1)c(=O)n2[C@H]1CC[C@H](O)CC1 [Compound 271, 2-amino-8-(trans-4-hydroxycyclohexyl)-4-methyl-6-(quinolin-3-yl)pyrido[2,3-d]pyrirnidin-7(8H)-one]	42	8.2	–
CCNc1nc(C)c2cc(-c3cnc(OC)c(F)c3)c(=O)n([C@H]3CC[C@H](O)CC3)c2n1 [Compound 276, 2-(ethylamino)-6-(5-fluoro-6-methoxypyridin-3-yl)-8-(trans-4-hydroxycyclohexyl)-4-methylpyrido[2,3-d]pyrimidin-7(8H)-one]	5.1	0.788	–

More lines, now with the values ahead:

IC50 [1, 3] [nM]	IC50 [2] [nM]	IC50 ([1]; pAKT Ser473 ELISA) [nM]	SMILES
4530	340	–	COc1ccc(-c2cc3c(C)nc(N)nc3n(CCN)c2=O)cn1 [Compound 238, 2-Amino-8-(2-amino-ethyl)-6-(6-methoxy-pyridin-3-yl)-4-methyl-8H-pyrido[2,3-d]pyrimidin-7-one]
101	89	–	Cc1nc(N)nc2c1cc(-c1cnn(CC(C)(C)O)c1)c(=O)n2C1CCCC1 [Compound 240, 2-Amino-8-cyclopentyl-6-[1-(2-hydroxy-2-methyl-propyl)-1H-pyrazol-4-yl]-4-methyl-8H-pyrido[2,3-d]pyrimidin-7-one]
316	18	–	COc1ccc(-c2cc3c(C)nc(N)nc3n(CC3(F)CCOCC3)c2=O)cn1 [Compound 243, 2-Amino-8-(4-fluoro-tetrahydro-pyran-4-ylmethyl)-6-(6-methoxy-pyridin-3-yl)-4-methyl-8H-pyrido[2,3-d]pyrimidin 7-one]
181	67	–	CNc1nc(C)c2cc(-c3c[nH]c(C)n3)c(=O)n(C3CCCC3)c2n1 [Compound 245, 8-Cyclopentyl-4-methyl-2-methylamino-6-(2-methyl-1H-imidazol-4-yl)-8H-pyrido[2,3-d]pyrimidin-7-one]
172	27	–	COc1ccc(-c2cc3c(C)nc(N)nc3n(C3CCN(C(=O)OC(C)(C)C)C3)c2=O)cn1 (stereo not shown) [Compound 246, 3-[2-Amino-6-(6-methoxy-pyridin-3-yl)-4-methyl-7-oxo-7H-pyrido[2,3-d]pyrimidin 8-yl]-pyrrolidine-1-carboxylic acid tert-butyl ester]
16.4	2.34	–	CNc1nc(C)c2cc(C(=O)Nc3cc[nH]n3)c(=O)n(C3CCCC3)c2n1 [Compound 250, 8-Cyclopentyl-4-methyl-2-methylamino-7-oxo-7,8-dihydro-pyrido[2,3-d]pyrimidine-6-carboxylic acid (1H-pyrazol-3-yl)-amide]
–	3.1	20.2	Cc1nc(N)nc2c1cc(-c1cccc(CO)c1)c(=O)n2C1CCCC1 [Compound 256]
23.1	11	–	Cc1cc(-c2cc3c(C)nc(N)nc3n(C3CCCC3)c2=O)cnc1N(C)C [Compound 257, 2-amino-8-cyclopentyl-6-[6-(dimethylamino)-5-methylpyridin-3-yl]-4-methylpyrido[23-d]pyrimidin-7(8H)-one]
33.2	3.9	–	Cc1nc(N)nc2c1cc(-c1cccc(CO)c1)c(=O)n2C1CCOCC1 [Compound 260, 2-amino-6-[3-(hydroxymethyl)phenyl]-4-methyl-8-(tetrahydro-2H-pyran-4-yl)pyrido[23-d]pyrimidin-7(8H)-one]
45.9	15	–	COc1ccc(-c2cc3c(C)nc(N)nc3n(C3CCCC3)c2=O)cc1F [Compound 262, 2-amino-8-cyclopentyl-6-(3-fluoro-4-methoxyphenyl)-4-methylpyrido[23-d]pyrimidin-7(8H)-one]
49.3	2.2	–	COc1ncc(-c2cc3c(C)nc(N)nc3n(C(C)C)c2=O)cn1 [Compound 266, 2-amino-8-isopropyl-6-(2-methoxypyrimidin-5-yl)-4-methylpyrido[2,3-d]pyrimidin-7(8H)-one]
2520	300	–	Cc1nc(N)nc2c1cc(-c1cnc(O)nc1)c(=O)n2C(C)C [Compound 268, 2-amino-6-(2-hydroxypyrimidin-5-yl)-8-isopropyl-4-methylpyrido[2,3-d]pyrimidin-7(8H)-one]
657	110	–	C#Cc1cc2c(C)nc(N)nc2n(C2CCC2)c1=O [Compound 270, 2-Amino-8-cyclobutyl-6-ethynyl-4-methylpyrido[2,3-d]pyrimidin-7(8H)-one]
46.8	12	–	COc1ccc(-c2cc3c(C)nc(NCC(F)F)nc3n([C@H]3CC[C@H](O)CC3)c2=O)cn1 [Compound 275, 2-(2,2-Difluoroethylamino)-8-(4-hydroxycyclohexyl)-6-(6-methoxypyridin-3-yl)-4-methylpyrido[2,3-d]pyrimidin-7(8H)-one]
20.6	1.59	–	CCNc1nc(C)c2cc(-c3cnc(OC)nc3)c(=O)n([C@H]3CC[C@H](O)CC3)c2n1 [Compound 277, 2-(ethylamino)-8-(trans-4-hydroxycyclohexyl)-6-(2-methoxypyrimidin-5-yl)-4-methylpyrido[2,3-d]pyrimidin-7(8H)-one]
